Assay results reported in US20140288182A1, “USE OF CARBAMIDE PEROXIDE INJECTION IN PREPARATION OF VIRUS INACTIVATION MEDICAMENTS FOR TREATING DISEASES” (Wuxi Zhaozhen Radiation Technology Co., Ltd., priority 2013, published 2014).

Test system: thoracic aorta blood vessel plaque
Test: New-Zealand rabbit model of blood vessel plaque (CTA angiography and MR)
Type: in vivo
Procedure: The New-Zealand rabbit model of blood vessel plaque is a common animal experimental model. […] The blood vessel plaque was taken as the target region and positioned, and a radiotherapy plan was made. 1.5 h after intraperitoneal injection of 5-ALA (80 mg/kg body weight), the substrate was intravenously dripped, and the irradiation to the blood vessel plaque was performed once with 5 Gy. The New-Zealand rabbit was continually fed for 1 week.

SMILES: NCC(=O)CCC(=O)O [5-ALA]
- regression of thoracic aorta blood vessel plaque (CTA angiography and MR detection) (5-ALA 80 mg/kg intraperitoneal 1.5 h before, substrate intravenously dripped, plaque irradiated once with 5 Gy, examined on the seventh day after treatment): completely disappeared
- plaque in the blood vessel of a rabbit by CT examination (FIG. 3) (photosensitizer given orally, irradiated with high energy X-ray, CT examination 5 days later): eliminated
